The record followed here is patent US10638756B2, “Molecules having pesticidal utility, and intermediates, compositions, and processes, related thereto” (Dow AgroSciences LLC, priority 2017, dated 2020).

The subject of experiment [1] is Beet Armyworm (Spodoptera exigua). Nature of the experiment: Bioassay on Beet Armyworm (BAW), 128-well diet tray assay. The class given is in vivo. Particulars: Spodoptera exigua, 168 h; 50 μg/cm^2 on artificial diet, second instar larvae, five to seven days; read-out: BAW % Control (or Mortality) rating. How it is done: (§1) Certain molecules disclosed in this document were tested against BAW and CL using procedures described in the following examples. In the reporting of the results, the “BAW & CL Rating Table” was used (See Table Section).
Bioassays on BAW were conducted using a 128-well diet tray assay. […] Trays were covered with a clear self-adhesive cover, vented to allow gas exchange, and held at 25° C., 14:10 light-dark for five to seven days. Percent mortality was recorded for the larvae in each well; activity in the eight wells was then averaged. The results are indicated in the table entitled “Table ABC: Biological Results” (See Table Section).

For experiment [2], the system named is Cabbage Looper (Trichoplusia ni). Nature of the experiment: Bioassay on Cabbage Looper (CL), 128-well diet tray assay. Particulars: 168 h, 50 μg/cm^2 on artificial diet, second instar larvae, five to seven days, read-out: CL % Control (or Mortality) rating. The class given is in vivo. The method, then: as §1
Bioassays on CL were conducted using a 128-well diet tray assay. One to five second instar CL larvae were placed in each well (3 mL) of the diet tray that had been previously filled with 1 mL of artificial diet to which 50 μg/cm^2 of the test molecule (dissolved in 50 μL of 90:10 acetone-water mixture) had been applied (to each of eight wells) and then allowed to dry. Trays were covered with a clear self-adhesive cover, vented to allow gas exchange, and held at 25° C., 14:10 light-dark for five to seven days. Percent mortality was recorded for the larvae in each well; activity in the eight wells was then averaged. The results are indicated in the table entitled “Table ABC: Biological Results” (See Table Section).

As to `CN(NC(=O)c1ccc(/C(F)=C/C(c2cc(Cl)cc(OC(F)(F)F)c2)C(F)(F)F)cc1C(F)(F)F)c1ccccn1` (stereo not drawn) [F61, (Z)-4-(3-(3-Chloro-5-(trifluoromethoxy)phenyl)-1,4,4,4-tetrafluorobut-1-en-1-yl)-N′-methyl-N′-(pyridin-2-yl)-2-(trifluoromethyl)benzohydrazide], the mortality at 50 µg/cm2 in experiment [1] and in experiment [2] was 50 to 100% each time.
As for `O=C(Nn1ccnn1)c1ccc(/C(F)=C/C(c2cc(Cl)c(Cl)c(Cl)c2)C(F)(F)F)cc1C(F)(F)F` (stereo not drawn) [F62, (Z)-4-(1,4,4,4-Tetrafluoro-3-(3,4,5-trichlorophenyl)but-1-en-1-yl)-N-(1H-1,2,3-triazol-1-yl)-2-(trifluoromethyl)benzamide], the mortality at 50 µg/cm2 in experiment [1] and in experiment [2] was 50 to 100% in each case.
Take `Cc1ccc(NNC(=O)c2ccc(/C(F)=C/C(c3cc(Cl)c(Cl)c(Cl)c3)C(F)(F)F)cc2C(F)(F)F)cc1` (stereo not drawn) [F68, (Z)-4-(1,4,4,4-Tetrafluoro-3-(3,4,5-trichlorophenyl)but-1-en-1-yl)-N′-(p-tolyl)-2-(trifluoromethyl)benzohydrazide]: the mortality at 50 µg/cm2 in experiment [1] and in experiment [2] was 50 to 100% throughout.
Take `O=C(NNc1c(Cl)cnc(C(Cl)(Cl)Cl)c1Cl)c1ccc(/C(F)=C/C(c2cc(Cl)c(Cl)c(Cl)c2)C(F)(F)F)cc1C(F)(F)F` (stereo not drawn) [F69, (Z)—N′-(3,5-Dichloro-2-(trichloromethyl)-4-pyridin-4-yl)-4-(1,4,4,4-tetrafluoro-3-(3,4,5-trichlorophenyl)but-1-en-1-yl]-2-(trifluoromethyl)benzohydrazide]: the mortality at 50 µg/cm2 in experiment [1] and in experiment [2] was 0% in each case.
As for `O=C(NNc1ccc(C(F)(F)F)cc1)c1ccc(/C(F)=C/C(c2cc(Cl)c(Cl)c(Cl)c2)C(F)(F)F)cc1C(F)(F)F` (stereo not drawn) [F70, (Z)-4-(1,4,4,4-tetrafluoro-3-(3,4,5-trichlorophenyl)but-1-en-1-yl)-2-(trifluoromethyl)-N′-(4-(trifluoromethyl)phenyl)benzohydrazide], the mortality at 50 µg/cm2 in experiment [1] and in experiment [2] was 50 to 100% throughout.
As for `Cc1cc(C)c(NNC(=O)c2ccc(/C(F)=C/C(c3cc(Cl)c(Cl)c(Cl)c3)C(F)(F)F)cc2C(F)(F)F)c(C)c1` (stereo not drawn) [F73, (Z)—N′-Mesityl-4-(1,4,4,4-tetrafluoro-3-(3,4,5-trichlorophenyl)but-1-en-1-yl)-2-(trifluoromethyl)benzohydrazide], the mortality at 50 µg/cm2 in experiment [1] fell in the range of 50 to 100%; in experiment [2], 0 to 50%.
For `O=C(NNc1ncccn1)c1ccc(/C(F)=C\C(c2cc(Cl)c(Cl)c(Cl)c2)C(F)(F)F)cc1C(F)(F)F` (stereo not drawn) [F74, (E)-N′-(pyrimidin-2-yl)-4-(1,4,4,4-tetrafluoro-3-(3,4,5-trichlorophenyl)but-1-en-1-yl)-2-(trifluoromethyl)benzohydrazide], in that order: 50 to 100% and 50 to 100%.
The matching figures for `Cc1nc(C)c(C)c(NNC(=O)c2ccc(/C(F)=C/C(c3cc(Cl)c(Cl)c(Cl)c3)C(F)(F)F)cc2C(F)(F)F)n1` (stereo not drawn) [F75, (Z)-4-(1,4,4,4-Tetrafluoro-3-(3,4,5-trichlorophenyl)but-1-en-1-yl)-2-(trifluoromethyl)-N′-(2,5,6-trimethylpyrimidin-4-yl)benzohydrazide]: 50 to 100% and 50 to 100%.
The matching figures for `O=C(NNc1ncccn1)c1ccc(/C(F)=C/C(c2cc(Cl)cc(C(F)(F)F)c2)C(F)(F)F)cc1C(F)(F)F` (stereo not drawn) [F77, (Z)-4-(3-(3-Chloro-5-(trifluoromethyl)phenyl)-1,4,4,4-tetrafluorobut-1-en-1-yl)-N′-(pyrimidin-2-yl)-2-(trifluoromethyl)benzohydrazide]: 50 to 100% and 50 to 100%.
In the case of `Cc1nc(Cl)cc(NNC(=O)c2ccc(/C(F)=C/C(c3cc(Cl)c(Cl)c(Cl)c3)C(F)(F)F)cc2C(F)(F)F)n1` (stereo not drawn) [F79, (Z)—N′-(6-Chloro-2-methylpyrimidin-4-yl)-4-(1,4,4,4-tetrafluoro-3-(3,4,5-trichlorophenyl)but-1-en-1-yl)-2-(trifluoromethyl)benzohydrazide], the mortality at 50 µg/cm2 in experiment [1] and in experiment [2] was 50 to 100% in each case.
As to `CN(NC(=O)c1ccc(/C(F)=C/C(c2cc(Cl)cc(C(F)(F)F)c2)C(F)(F)F)cc1C(F)(F)F)c1ncccn1` (stereo not drawn) [F83, (Z)-4-(3-(3-Chloro-5-(trifluoromethyl)phenyl)-1,4,4,4-tetrafluorobut-1-en-1-yl)-N′-methyl-N′-(pyrimidin-2-yl)-2-(trifluoromethyl)benzohydrazide], the mortality at 50 µg/cm2 in experiment [1] and in experiment [2] was 50 to 100% throughout.
For the compound `CCc1cnc(NNC(=O)c2ccc(/C(F)=C/C(c3cc(Cl)c(Cl)c(Cl)c3)C(F)(F)F)cc2C(F)(F)F)nc1` (stereo not drawn) [F84, (Z)—N′-(5-Ethylpyrimidin-2-yl)-4-(1,4,4,4-tetrafluoro-3-(3,4,5-trichlorophenyl)but-1-en-1-yl)-2-(trifluoromethyl)benzohydrazide], the mortality at 50 µg/cm2 in experiment [1] and in experiment [2] was 50 to 100% throughout.
Regarding `Cc1cc(C)nc(NNC(=O)c2ccc(/C(F)=C/C(c3cc(Cl)c(Cl)c(Cl)c3)C(F)(F)F)cc2C(F)(F)F)n1` (stereo not drawn) [F85, (Z)—N′-(4,6-Dimethylpyrimidin-2-yl)-4-(1,4,4,4-tetrafluoro-3-(3,4,5-trichlorophenyl)but-1-en-1-yl)-2-(trifluoromethyl)benzohydrazide], the mortality at 50 µg/cm2 in experiment [1] and in experiment [2] was 50 to 100% throughout.
As for `O=C(NNc1cccnn1)c1ccc(/C(F)=C/C(c2cc(Cl)c(Cl)c(Cl)c2)C(F)(F)F)cc1C(F)(F)F` (stereo not drawn) [F86], the mortality at 50 µg/cm2 in experiment [1] and in experiment [2] was 50 to 100% each time.
Consider `O=C(NNc1c(Cl)cc(C(F)(F)F)cc1Cl)c1ccc(/C(F)=C/C(c2cc(Cl)c(Cl)c(Cl)c2)C(F)(F)F)cc1C(F)(F)F` (stereo not drawn) [F87, (Z)—N′-(2,6-Dichloro-4-(trifluoromethyl)phenyl)-4-(1,4,4,4-tetrafluoro-3-(3,4,5-trichlorophenyl)but-1-en-1-yl)-2-(trifluoromethyl)benzohydrazide], for which the mortality at 50 µg/cm2 in experiment [1] and in experiment [2] was 0% throughout.
As for `O=C(Nn1ccc2ccccc21)c1ccc(/C(F)=C/C(c2cc(Cl)c(Cl)c(Cl)c2)C(F)(F)F)cc1C(F)(F)F` (stereo not drawn) [F89, (Z)—N-(1H-Indol-1-yl)-4-(1,4,4,4-tetrafluoro-3-(3,4,5-trichlorophenyl)but-1-en-1-yl)-2-(trifluoromethyl)benzamide], the mortality at 50 µg/cm2 in experiment [1] and in experiment [2] was 50 to 100% each time.
As for `COc1cnc(NNC(=O)c2ccc(/C(F)=C/C(c3cc(Cl)c(Cl)c(Cl)c3)C(F)(F)F)cc2C(F)(F)F)nc1` (stereo not drawn) [F90, (Z)—N′-(5-Methoxypyrimidin-2-yl)-4-(1,4,4,4-tetrafluoro-3-(3,4,5-trichlorophenyl)but-1-en-1-yl)-2-(trifluoromethyl)benzohydrazide], the mortality at 50 µg/cm2 in experiment [1] and in experiment [2] was 50 to 100% in each case.
With `CN(NC(=O)c1ccc(/C(F)=C/C(c2cc(Cl)c(Cl)c(Cl)c2)C(F)(F)F)cc1C(F)(F)F)c1nccc(C(F)(F)F)n1` (stereo not drawn) [F91, (Z)—N′-methyl-4-(1,4,4,4-tetrafluoro-3-(3,4,5-trichlorophenyl)but-1-en-1-yl)-2-(trifluoromethyl)-N′-(4-(trifluoromethyl)pyrimidin-2-yl)benzohydrazide], the mortality at 50 µg/cm2 in experiment [1] and in experiment [2] was 50 to 100% in each case.

Usually mortality stands for the share of the test organisms that died.
